In brackets after ≈: the same amount, converted by molar mass. Read-outs that look alike come from different tables or passages of the source.
Legend:
[1] = biological target: T1, E. coli WT RNAP (Escherichia coli, UniProt P0A8V2); assay: biochemical
T1 construct: made in house

[2] = biological target: T2, E. coli D516V (RIF^R) RNAP (Escherichia coli, UniProt P0A8V2, D516V); assay: biochemical
T2 construct: made in house

[3] = biological target: T3, E. coli S531L (RIF^R) RNAP (Escherichia coli, UniProt P0A8V2, S531L); assay: biochemical
T3 construct: made in house

[4] = system: VERO cells (ATCC CRL-81); assay: Vero cell toxicity; type: cell-based; details: Chlorocebus sabaeus, Vero; 72 hours exposure
Description: Cytotoxicity for a mammalian cell line was determined by exposing VERO cells (ATCC CRL-81) to serial dilutions of test compounds for 72 hours, followed by addition of resazurin and measurement of fluorescence after 4 hours incubation (Choules, et al., Antimnicrob. Agents Chemother. 2019, 63, e02204-02218).

[5] = system: MTB H37Rv ATCC 27294; assay: MIC, microplate Alamar Blue assay (MABA); type: cell-based, Mycobacterium tuberculosis; details: for MIC: Mycobacterium tuberculosis, MTB H37Rv ATCC 27294, microplate Alamar Blue assay, lowest concentration giving ≥90% reduction in fluorescence, read-out: MIC90 MABA
[6] = system: M. tuberculosis H37Rv; assay: Minimum bactericidal concentration (MBC, CFU Assay); type: cell-based, Mycobacterium tuberculosis; details: for MBC: Mycobacterium tuberculosis, 168 h, Day 7, M. tuberculosis H37Rv, ≥99% reduction in colony forming units, read-out: MBC99 Day 7 (CFU Assay) MBC99
[7] = system: DPX2 cells; details: for DPX2 Viability @ 6.25 μM: 24 h; for DPX2 Viability @ 25 μM: human
[8] = CFU Assay MBC99 relative to rifampin (RMP = 1)

SMILES	IC50 [1] [µM]	IC50 [2] [µM]	IC50 [3] [µM]	IC50 [4] [µM]	MIC90 MABA Rel to RMP [5]	MIC [5] [µM]	MBC99 Day 7 (CFU Assay) MBC99 Rel to RMP [6, 8]	MBC [6] [µM]	DPX2 Viability @ 6.25 μM [7] [%]	DPX2 Viability @ 25 μM [7] [%]	MBC99 Day 7 (CFU Assay) MBC99 Rel to RMP [6]
CO[C@H]1/C=C/O[C@@]2(C)Oc3c(C)c(O)c4c(=O)c(c5oc6cccc(OCCCCN7CCOCC7)c6nc-5c4c3C2=O)NC(=O)/C(C)=C\C=C\[C@H](C)[C@H](O)[C@@H](C)[C@@H](O)[C@@H](C)[C@H](OC(C)=O)[C@@H]1C [Compound 5b, (7S,9E,11S,12R,13S,14R,15R,16R,17S,18S,19E,21Z)-2,15,17-Trihydroxy-11-methoxy-3,7,12,14,16,18,22-heptamethyl-32-[4-(morpholin-4-yl)butoxy]-6,23,37-trioxo-8,27,38-trioxa-24,34-diazahexacyclo[23.11.1.1^4,7.0^5,36.0^26,35.0^28,33]octatriaconta-1(36)2,4,9,19,21,25,28(33)29,31,34-undecaen-13-yl acetate]	0.007	65	390	> 8	0.70	0.021	0.38	0.05	81	45	
CO[C@H]1/C=C/O[C@@]2(C)Oc3c(C)c(O)c4c(=O)c(c5oc6cc(N7CCN(CC(C)C)CC7)cc(OCCCCN7CCN(CCn8ccnc8)CC7)c6nc-5c4c3C2=O)NC(=O)/C(C)=C\C=C\[C@H](C)[C@H](O)[C@@H](C)[C@@H](O)[C@@H](C)[C@H](OC(C)=O)[C@@H]1C [Compound 6b, (7S,9E,11S,12R,13S,14R,15R,16R,17S,18S,19E,21Z)-2,15,17-trihydroxy-32-(4-{4-[2-(1H-imidazol-1-yl)ethyl]piperazin-1-yl}butoxy)-11-methoxy-3,7,12,14,16,18,22-heptamethyl-30-[4-(2-methylpropyl)piperazin-1-yl]-6,23,37-trioxo-8,27,38-trioxa-24,34-diazahexacyclo[23.11.1.1^4,7.0^5,36.0^26,35.0^28,33]octatriaconta-1(36)2,4,9,19,21,25,28(33)29,31,34-undecaen-13-yl acetate]	0.006	51	52	> 8	1.6	0.021	0.23	0.03	120	57	
CO[C@H]1/C=C/O[C@@]2(C)Oc3c(C)c(O)c4c(=O)c(c5oc6cc(N7CCN(CC(C)C)CC7)cc(OCCCCN7CCOCC7)c6nc-5c4c3C2=O)NC(=O)/C(C)=C\C=C\[C@H](C)[C@H](O)[C@@H](C)[C@@H](O)[C@@H](C)[C@H](OC(C)=O)[C@@H]1C [Compound 6a, (7S,9E,11S,12R,13S,14R,15R,16R,17S,18S,19E,21Z)-2,15,17-Trihydroxy-11-methoxy-3,7,12,14,16,18,22-heptamethyl-30-[4-(2-methylpropyl)piperazin-1-yl]-32-[4-(morpholin-4-yl)butoxy]-6,23,37-trioxo-8,27,38-trioxa-24,34-diazahexacyclo[23.11.1.1^4,7.0^5,36.0^26,35.0^28,33]octatriaconta-1(36)2,4,9,19,21,25,28(33)29,31,34-undecaen-13-yl acetate]	0.006	39	80	> 8	0.80	0.092		0.01	102	86	0.08
CO[C@H]1/C=C/O[C@@]2(C)Oc3c(C)c(O)c4c(=O)c(c5oc6cc(N7CCN(CC(C)C)CC7)cc(OCc7ccc(CN8CCN(C(=O)Cn9ccnc9)CC8)cc7)c6nc-5c4c3C2=O)NC(=O)/C(C)=C\C=C\[C@H](C)[C@H](O)[C@@H](C)[C@@H](O)[C@@H](C)[C@H](OC(C)=O)[C@@H]1C [Compound 17c, (7S,9E,11S,12R,13S,14R,15R,16R,17S,18S,19E,21Z)-2,15,17-Trihydroxy-32-{[4-({4-[2-(1H-imidazol-1-yl)acetyl]piperazin-1-yl}methyl)phenyl]methoxy}-11-methoxy-3,7,12,14,16,18,22-heptamethyl-30-[4-(2-methylpropyl)piperazin-1-yl]-6,23,37-trioxo-8,27,38-trioxa-24,34-diazahexacyclo[23.11.1.1^4,7.0^5,36.0^26,35.0^28,33]octatriaconta-1(36)2,4,9,19,21,25,28,30,32,34-undecaen-13-yl acetate]	0.02	12	100	> 8	1.3	0.023	0.15	0.02	102	94	
CO[C@H]1/C=C/O[C@@]2(C)Oc3c(C)c(O)c4c(=O)c(c5oc6cccc(OCc7ccc(CN8CCN(C(=O)Cn9ccnc9)CC8)cc7)c6nc-5c4c3C2=O)NC(=O)/C(C)=C\C=C\[C@H](C)[C@H](O)[C@@H](C)[C@@H](O)[C@@H](C)[C@H](OC(C)=O)[C@@H]1C [Compound 16b, (7S,9E,11S,12R,13S,14R,15R,16R,17S,18S,19E,21Z)-2,15,17-Trihydroxy-32-{[4-({4-[2-(1H-imidazol-1-yl)acetyl]piperazin-1-yl}methyl)phenyl]methoxy}-11-methoxy-3,7,12,14,16,18,22-heptamethyl-6,23,37-trioxo-8,27,38-trioxa-24,34-diazahexacyclo[23.11.1.1^4,7.0^5,36.0^26,35.0^28,33]octatriaconta-1(36)2,4,9,19,21,25,28,30,32,34-undecaen-13-yl acetate]	0.005	24	160	> 8	1.6	0.029	0.15	0.02	117	76	
CO[C@H]1/C=C/O[C@@]2(C)Oc3c(C)c(O)c4c(=O)c(c5oc6cccc(OCCCCN7CCN(C)CC7)c6nc-5c4c3C2=O)NC(=O)/C(C)=C\C=C\[C@H](C)[C@H](O)[C@@H](C)[C@@H](O)[C@@H](C)[C@H](OC(C)=O)[C@@H]1C [Compound 5a, (7S,9E,11S,12R,13S,14R,15R,16R,17S,18S,19E,21Z)-2,15,17-Trihydroxy-11-methoxy-3,7,12,14,16,18,22-heptamethyl-32-[4-(4-methylpiperazin-1-yl)butoxy]-6,23,37-trioxo-8,27,38-trioxa-24,34-diazahexacyclo[23.11.1.1^4,7.0^5,36.0^26,35.0^28,33]octatriaconta-1(36)2,4,9,19,21,25,28(33)29,31,34-undecaen-13-yl acetate]	0.006	27	790	> 8	3.1	0.092	0.77	0.1	87	47	
CO[C@H]1/C=C/O[C@@]2(C)Oc3c(C)c(O)c4c(=O)c(c5oc6cccc(OCCCCN7CCN(C(=O)OC(C)(C)C)CC7)c6nc-5c4c3C2=O)NC(=O)/C(C)=C\C=C\[C@H](C)[C@H](O)[C@@H](C)[C@@H](O)[C@@H](C)[C@H](OC(C)=O)[C@@H]1C [Compound 5c, Tert-Butyl 4-(4-{[(7S,9E,11S,12R,13S,14R,15R,16R,17S,18S,19E,21Z)-13-(acetyloxy)-2,15,17-trihydroxy-11-methoxy-3,7,12,14,16,18,22-heptamethyl-6,23,37-trioxo-8,27,38-trioxa-24,34-diazahexacyclo[23.11.1.1^4,7.0^5,36.0^26,35.0^28,33]octatriaconta-1(36)2,4,9,19,21,25,28(33)29,31,34-undecaen-32-yl]oxy}butyl)piperazine-1-carboxylate]	< 0.005	22	300	6.2	0.89	0.024 (≈ 0.025 µg/mL)	0.77	0.1 (≈ 0.104 µg/mL)			
CO[C@H]1/C=C/O[C@@]2(C)Oc3c(C)c(O)c4c(=O)c(c5oc6cc(N7CCN(CC(C)C)CC7)cc(OCc7cccc(CN8CCN(C(=O)Cn9ccnc9)CC8)c7)c6nc-5c4c3C2=O)NC(=O)/C(C)=C\C=C\[C@H](C)[C@H](O)[C@@H](C)[C@@H](O)[C@@H](C)[C@H](OC(C)=O)[C@@H]1C [Compound 12c, (7S,9E,11S,12R,13S,14R,15R,16R,17S,18S,19E,21Z)-2,15,17-Trihydroxy-32-{[3-({4-[2-(1H-imidazol-1-yl)acetyl]piperazin-1-yl}methyl)phenyl]methoxy}-11-methoxy-3,7,12,14,16,18,22-heptamethyl-30-[4-(2-methylpropyl)piperazin-1-yl]-6,23,37-trioxo-8,27,38-trioxa-24,34-diazahexacyclo[23.11.1.1^4,7.0^5,36.0^26,35.0^28,33]octatriaconta-1(36)2,4,9,19,21,25,28,30,32,34-undecaen-13-yl acetate]	0.014	17	66	> 8	0.12	0.0048	<0.08	< 0.02	107	95	
